For the assay, the target named is T1, human HSL (Homo sapiens, UniProt Q05469).
T1 construct: generate a full length human HSL ORF with a 3′-His6 tag; made in house; host or cells: High 5 insect cells (baculovirus, pFast-BAC)
T1 sequence (Q05469 1-1076): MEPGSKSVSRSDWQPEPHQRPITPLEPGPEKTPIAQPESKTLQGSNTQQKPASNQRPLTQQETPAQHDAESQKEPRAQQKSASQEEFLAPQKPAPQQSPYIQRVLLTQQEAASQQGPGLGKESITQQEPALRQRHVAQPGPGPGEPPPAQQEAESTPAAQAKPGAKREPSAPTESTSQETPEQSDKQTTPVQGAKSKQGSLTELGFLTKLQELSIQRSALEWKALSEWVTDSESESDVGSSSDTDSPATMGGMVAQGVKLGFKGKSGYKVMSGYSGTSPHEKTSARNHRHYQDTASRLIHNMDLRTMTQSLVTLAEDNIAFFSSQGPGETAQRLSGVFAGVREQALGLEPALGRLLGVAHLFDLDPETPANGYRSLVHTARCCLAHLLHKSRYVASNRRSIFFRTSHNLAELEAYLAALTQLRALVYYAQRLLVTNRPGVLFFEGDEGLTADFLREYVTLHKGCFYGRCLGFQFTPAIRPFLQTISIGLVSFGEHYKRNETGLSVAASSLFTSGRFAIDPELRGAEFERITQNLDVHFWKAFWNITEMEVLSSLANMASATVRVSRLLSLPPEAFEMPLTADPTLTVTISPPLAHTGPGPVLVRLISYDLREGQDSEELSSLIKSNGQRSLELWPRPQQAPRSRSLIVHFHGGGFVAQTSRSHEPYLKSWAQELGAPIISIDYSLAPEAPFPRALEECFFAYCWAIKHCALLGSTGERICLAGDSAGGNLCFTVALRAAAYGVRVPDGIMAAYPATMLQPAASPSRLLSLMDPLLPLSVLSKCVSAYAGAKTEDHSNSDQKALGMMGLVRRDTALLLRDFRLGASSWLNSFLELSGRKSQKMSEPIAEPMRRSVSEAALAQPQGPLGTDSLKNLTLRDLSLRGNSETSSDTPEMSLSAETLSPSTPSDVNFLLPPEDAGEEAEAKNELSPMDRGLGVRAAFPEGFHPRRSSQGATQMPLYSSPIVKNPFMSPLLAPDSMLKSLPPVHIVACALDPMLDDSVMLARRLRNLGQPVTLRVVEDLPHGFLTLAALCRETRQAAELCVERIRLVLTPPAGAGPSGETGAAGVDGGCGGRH
Kind of assay: Human Hormone-Sensitive Lipase (HSL) enzyme inhibition assay (colorimetric, DMPT substrate). Format: biochemical. The note with it: human full length HSL-His6, 2,3-dimercapto-1-propanol tributyrate substrate, 37° C. 20 minutes, absorbance at 405 nm; read-out: HSL hum IC50. An outline of the steps: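 Full-length human HSL with C-terminal His6, expressed in baculovirus-infected High 5 cells and Ni-NTA purified, was added (15 ug/ml stock) to 1.5 mM DMPT in 100 mM MOPS pH 7.2, 0.2 mg/ml fatty acid-free BSA containing compound. After 20 min at 37 °C, DTNB with SDS/Triton X-100 was added; A405 read after 15 min at RT.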
Consider `CC1(COC[C@]2(O)CC[C@]3(CCN(c4ccc(OCC(F)(F)F)cc4)C3=O)CC2)COC1` [Example 260, (5α,8α)-8-Hydroxy-8-(3-methyl-oxetan-3-ylmethoxymethyl)-2-[4-(2,2,2-trifluoro-ethoxy)-phenyl]-2-aza-spiro[4.5]decan-1-one], for which the IC50 (in general, the concentration that gives 50% inhibition) worked out at 60 nM.

As for `CC[C@]1(O)CC[C@]2(CCN(c3ccc(OC(C)C(F)(F)F)cc3)C2=O)CC1` (stereo partly drawn) [Example 165, (5α,8α)-8-Ethyl-8-hydroxy-2-[4-(2,2,2-trifluoro-1-methyl-ethoxy)-phenyl]-2-aza-spiro[4.5]decan-1-one], the IC50 is 20 nM.

For `CC[C@]1(O)CC[C@]2(CCN(c3ccc(OS(=O)(=O)C4CC4)cc3)C2=O)CC1` [Example 183, 4-((5α,8α)-8-ethyl-8-hydroxy-1-oxo-2-aza-spiro[4.5]decan-2-yl)phenyl cyclopropanesulfonate], the 50% inhibitory concentration (IC50) amounted to 70 nM.

Turning to `COc1ccc(N2CCC3(CC=CCC3)C2=O)cc1` (stereo not drawn) [Example 47, 2-(4-Methoxy-phenyl)-2-aza-spiro[4.5]dec-7-en-1-one], the IC50 came to 6750 nM.

`CCc1ccc(N2CC[C@]3(CC[C@@H](OC(=O)Nc4ccccc4)CC3)C2=O)cc1` [Example 8, Phenyl-carbamic acid [(5α,8β)-2-(4-ethyl-phenyl)-1-oxo-2-aza-spiro[4.5]dec-8-yl]ester]: the 50% inhibitory concentration (IC50) amounted to 270 nM.

In the case of `C[C@@H](Oc1ccc(N2CC[C@]3(CC[C@@](O)(COCC(F)(F)F)CC3)C2=O)cn1)C(F)(F)F` [Example 327, (5α,8α)-8-Hydroxy-8-(2,2,2-trifluoro-ethoxymethyl)-2-[6-((R)-2,2,2-trifluoro-1-methyl-ethoxy)-pyridin-3-yl]-2-aza-spiro[4.5]decan-1-one], the half-maximal inhibitory concentration (IC50) was found to be 30 nM.

As to `CCSC[C@]1(O)CC[C@]2(CCN(c3ccc(OCC(F)(F)F)cc3)C2=O)CC1` [Example 261, (5α,8α)-8-Ethylsulfanylmethyl-8-hydroxy-2-[4-(2,2,2-trifluoro-ethoxy)-phenyl]-2-aza-spiro[4.5]decan-1-one], the half-maximal inhibitory concentration (IC50) is 10 nM.

Take `O=C1N(c2ccc(OCC(F)(F)F)cc2)CC[C@]12CC[C@@](O)(COCC1CCC1)CC2` [Example 255, (5α,8α)-8-[(Cyclobutylmethoxy)methyl]-8-hydroxy-2-[4-(2,2,2-trifluoro-ethoxy)-phenyl]-2-aza-spiro[4.5]decan-1-one]: the IC50 turned out to be 10 nM.

On to `COC[C@]1(O)CC[C@]2(CCN(c3ccc(O[C@@H](C)C(F)(F)F)cc3)C2=O)CC1` [Example 146, (5α,8α)-8-Hydroxy-8-methoxymethyl-2-[4-((S)-2,2,2-trifluoro-1-methyl-ethoxy)-phenyl]-2-aza-spiro[4.5]decan-1-one], for which the IC50 turned out to be 20 nM.

As to `CC[C@]1(O)CC[C@]2(CCN(c3ccc(C(C)(C)COC)cc3)C2=O)CC1` [Example 131, (5α,8α)-8-Ethyl-8-hydroxy-2-[4-(2-methoxy-1,1-dimethyl-ethyl)-phenyl]-2-aza-spiro[4.5]decan-1-one], the half-inhibitory concentration (IC50) is 90 nM.

For `C[C@@H](Oc1ccc(N2CC[C@]3(CC[C@](O)(COCC(F)F)CC3)C2=O)cc1)C(F)(F)F` [Example 300, (5α,8β)-8-(2,2-Difluoro-ethoxymethyl)-8-hydroxy-2-[4-((R)-2,2,2-trifluoro-1-methyl-ethoxy)-phenyl]-2-aza-spiro[4.5]decan-1-one], the IC50 was 300 nM.

As for `CC(C)(C)c1ccc(N2CC[C@]3(CC[C@@](O)(CS(=O)(=O)C(C)(C)C)CC3)C2=O)cc1` [Example 334, (5α,8α)-2-(4-tert-Butyl-phenyl)-8-hydroxy-8-(2-methyl-propane-2-sulfonylmethyl)-2-aza-spiro[4.5]decan-1-one], the IC50 was 8 nM.

Take `Cc1cc(C[C@]2(O)CC[C@]3(CCN(c4ccc(OC(C)C)cc4)C3=O)CC2)no1` [Example 220]: the IC50 is 20 nM.

`CCC(O)[C@H]1CC[C@@]2(CCN(c3ccc(O[C@H](C)C(F)(F)F)cc3)C2=O)CC1` (stereo partly drawn) [Example 365, (5α,8β)-8-(1-Hydroxy-propyl)-2-[4-((R)-2,2,2-trifluoro-1-methyl-ethoxy)-phenyl]-2-aza-spiro[4.5]decan-1-one]: the IC50 was found to be 50 nM.

`CCOC[C@]1(O)CC[C@@]2(CCN(c3ccc(O[C@@H](C)C(F)(F)F)cc3)C2=O)CC1` [Example 250, (5α,8β)-8-Ethoxymethyl-8-hydroxy-2-[4-((S)-2,2,2-trifluoro-1-methyl-ethoxy)-phenyl]-2-aza-spiro[4.5]decan-1-one]: the IC50 was found to be 600 nM.

As for `CCc1ccc(N2CC[C@]3(CC[C@](O)(COCC(F)(F)F)CC3)C2=O)cc1` [Example 230, (5α,8β)-2-(4-Ethyl-phenyl)-8-hydroxy-8-(2,2,2-trifluoro-ethoxymethyl)-2-aza-spiro[4.5]decan-1-one], the IC50 was determined as 400 nM.

Consider `CC(C)[C@]1(O)CC[C@@]2(CCN(c3ccc([C@@H](O)C(F)(F)F)cc3)C2=O)CC1` [Example 136, (5α,8β)-8-Hydroxy-8-isopropyl-2-(4-((R)-2,2,2-trifluoro-1-hydroxy-ethyl)-phenyl)-2-aza-spiro[4.5]decan-1-one], for which the IC50 came to 2760 nM.

In the case of `CC[C@]1(O)CC[C@@]2(CCN(c3ccc(OC(F)(F)F)cc3)C2=O)CC1` [Example 61, (5α,8β)-8-Ethyl-8-hydroxy-2-(4-trifluoromethoxy-phenyl)-2-aza-spiro[4.5]decan-1-one], the half-inhibitory concentration (IC50) is 2090 nM.

Turning to `CC[C@]1(O)CC[C@@]2(CCN(c3ccc(OCC(F)(F)F)cc3)C2=O)CC1` [Example 89, (5α,8β)-8-Ethyl-8-hydroxy-2-[4-(2,2,2-trifluoro-ethoxy)-phenyl]-2-aza-spiro[4.5]decan-1-one], the IC50 stood at 3190 nM.

As to `Cn1nnc(Br)c1[C@]1(O)CC[C@]2(CCN(c3ccc(C(F)(F)F)cc3)C2=O)CC1` [Example 214, (5α,8α)-8-(5-Bromo-3-methyl-3H-[1,2,3]triazol-4-yl)-8-hydroxy-2-(4-trifluoromethyl-phenyl)-2-aza-spiro[4.5]decan-1-one], the IC50 amounted to 50 nM.

With `CCO[C@H]1CC[C@@]2(CCN(c3ccc(OC(F)(F)F)cc3)C2=O)CC1` [Example 24, (5α,8β)-8-Ethoxy-2-(4-trifluoromethoxy-phenyl)-2-aza-spiro[4.5]decan-1-one], the IC50 amounted to 370 nM.

For `O=C1N(c2ccc(C3CC3)cc2)CC[C@]12CC[C@](O)(COCC(F)(F)F)CC2` [Example 288, (5α,8β)-2-(4-Cyclopropyl-phenyl)-8-hydroxy-8-(2,2,2-trifluoro-ethoxymethyl)-2-aza-spiro[4.5]decan-1-one], the concentration for half-maximal inhibition (IC50) was determined as 800 nM.

In the case of `CC(C)S(=O)(=O)C[C@]1(O)CC[C@]2(CCN(c3ccc(OCC(F)(F)F)cc3)C2=O)CC1` [Example 318, (5α,8α)-8-Hydroxy-8-(propane-2-sulfonylmethyl)-2-[4-(2,2,2-trifluoro-ethoxy)-phenyl]-2-aza-spiro[4.5]decan-1-one], the 50% inhibitory concentration (IC50) turned out to be 30 nM.

In the case of `O=C1N(c2ccc([C@@H](O)C(F)(F)F)cc2)CC[C@]12CC[C@@](O)(COCC(F)(F)F)CC2` [Example 155, (5α,8α)-8-Hydroxy-8-(2,2,2-trifluoro-ethoxymethyl)-2-[4-((R)-2,2,2-trifluoro-1-hydroxy-ethyl)-phenyl]-2-aza-spiro[4.5]decan-1-one], the IC50 was 9 nM.

As to `CC(C)[C@]1(O)CC[C@]2(CCN(c3ccc(C(C)(C)C)cc3)C2=O)CC1` [Example 344, (5α,8α)-2-(4-tert-Butyl-phenyl)-8-hydroxy-8-isopropyl-2-aza-spiro[4.5]decan-1-one], the IC50 was found to be 10 nM.

As for `C[C@@H](Oc1ccc(N2CC[C@]3(CC[C@@](O)(CS(=O)(=O)C(C)(C)C)CC3)C2=O)cn1)C(F)(F)F` [Example 326, (5α,8α)-8-Hydroxy-8-(2-methyl-propane-2-sulfonylmethyl)-2-[6-((R)-2,2,2-trifluoro-1-methyl-ethoxy)-pyridin-3-yl]-2-aza-spiro[4.5]decan-1-one], the IC50 was determined as 10 nM.

Regarding `O=C1N(c2ccc(OCC(F)(F)F)nc2)CC[C@]12CC[C@@](O)(CCC(F)(F)F)CC2` [Example 166, (5α,8α)-8-Hydroxy-2-[6-(2,2,2-trifluoro-ethoxy)-pyridin-3-yl]-8-(3,3,3-trifluoro-propyl)-2-aza-spiro[4.5]decan-1-one], the IC50 was 40 nM.

Source of the values: patent US8440710B2, “HSL inhibitors useful in the treatment of diabetes” (Hoffmann-La Roche Inc., priority 2009, dated 2013).
